This note sets out measurements from patent US11773094B2, “Farnesoid X receptor agonists and uses thereof” (Metacrine, Inc., priority 2018, dated 2023).

In general, EC50 refers to the concentration that produces a half-maximal response. Low readings indicate an effect from little substance, high ones a need for much substance.

This test deals with T1, hFXR (Homo sapiens, UniProt Q96RI1).
T1 construct: expressed in transfected cells; host or cells: CV-1 cells
T1 sequence (Q96RI1 1-486): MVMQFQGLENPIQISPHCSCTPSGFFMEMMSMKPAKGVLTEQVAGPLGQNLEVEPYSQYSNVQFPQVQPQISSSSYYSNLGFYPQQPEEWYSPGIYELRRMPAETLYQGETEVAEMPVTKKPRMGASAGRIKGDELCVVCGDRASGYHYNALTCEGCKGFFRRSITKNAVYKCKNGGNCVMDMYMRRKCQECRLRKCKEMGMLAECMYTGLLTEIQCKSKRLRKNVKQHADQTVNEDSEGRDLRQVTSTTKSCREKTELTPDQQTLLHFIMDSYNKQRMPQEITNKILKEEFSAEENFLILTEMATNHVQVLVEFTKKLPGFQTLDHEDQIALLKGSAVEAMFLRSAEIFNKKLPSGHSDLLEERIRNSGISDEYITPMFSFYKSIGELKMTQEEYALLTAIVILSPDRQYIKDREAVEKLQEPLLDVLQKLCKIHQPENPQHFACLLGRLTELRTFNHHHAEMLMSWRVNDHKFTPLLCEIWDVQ
T1 sequence (P19793 1-462 partner): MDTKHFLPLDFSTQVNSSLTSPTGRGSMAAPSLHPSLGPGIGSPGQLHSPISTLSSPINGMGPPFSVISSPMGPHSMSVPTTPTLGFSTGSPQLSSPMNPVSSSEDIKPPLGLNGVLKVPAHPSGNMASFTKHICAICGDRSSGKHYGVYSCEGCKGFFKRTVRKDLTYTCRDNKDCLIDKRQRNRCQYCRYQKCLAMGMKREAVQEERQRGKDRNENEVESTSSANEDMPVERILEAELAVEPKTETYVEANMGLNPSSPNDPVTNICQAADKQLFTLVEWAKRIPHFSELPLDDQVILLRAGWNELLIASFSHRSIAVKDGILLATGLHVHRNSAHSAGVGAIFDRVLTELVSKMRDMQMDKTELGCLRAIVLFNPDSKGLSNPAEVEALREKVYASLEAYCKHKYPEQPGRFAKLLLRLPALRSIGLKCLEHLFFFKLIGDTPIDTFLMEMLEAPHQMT
The test can be described thus: In Vitro FXR Assay (TK): TK-ECRE-luc reporter in transfected CV-1 cells. It is filed as cell-based. As to conditions: CV-1 cells transfected with hFXR, hRXR, pCMX-YFP, 18 hrs incubation, luminescence. In outline:
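CV-1, DMEM/10% charcoal-stripped FBS, 37 °C 5% CO2. Transfection O/N: hFXR + hRXR + TK-ECRE-luc + pCMX-YFP. Cpds (DMSO serial dil.) 18 h; lyse, read luminescence.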
Consider `COc1ccc(C23CCC(CN(c4cc(-c5cnn(C(C)(C)C)c5)ccn4)C(=O)[C@H]4CC[C@H](OC(=O)NC5CCS(=O)(=O)CC5)CC4)(CC2)CC3)cc1C` [Compound 2.39, 4-((4-(1-(tert-Butyl)-1H-pyrazol-4-yl)pyridin-2-yl)((4-(4-methoxy-3-methylphenyl)bicyclo[2.2.2]octan-1-yl)methyl)carbamoyl) cyclohexyl trans-(1,1-dioxidotetrahydro-2H-thiopyran-4-yl)carbamate], for which the EC50 lay in the range of 0.01 to 1 µM.

For the compound `COc1ccc(C23CCC(CN(c4cc(-c5cnc(C(C)(C)C)s5)ccn4)C(=O)[C@H]4CC[C@H](OC(=O)NCCCO)CC4)(CC2)CC3)cc1C` [Compound 2.02, 4-((4-(2-(tert-Butyl)thiazol-5-yl)pyridin-2-yl)((4-(4-methoxy-3-methylphenyl)bicyclo[2.2.2]octan-1-yl)methyl)carbamoyl) (trans-cyclohexyl) (3-hydroxypropyl)carbamate], the EC50 was no more than 0.01 µM.

Regarding `COc1ccc(C23CCC(CN(c4cc(-c5cnc(C(C)(C)C)s5)ccn4)C(=O)[C@H]4CC[C@H](OC(=O)NC5CCOCC5)CC4)(CC2)CC3)cc1C` [Compound 3.09, 4-((4-(2-(tert-Butyl)thiazol-5-yl)pyridin-2-yl)((4-(4-methoxy-3-methylphenyl)bicyclo[2.2.2]octan-1-yl)methyl)carbamoyl) cyclohexyl (tetrahydro-2H-pyran-4-yl)trans-carbamate], the EC50 was in the range of 0.01 to 1 µM.

On to `COc1ccc(C23CCC(CN(c4cc(-c5cnn(C(C)(C)C)c5)ccn4)C(=O)[C@H]4CC[C@H](OC(=O)N5CC(C)(O)C5)CC4)(CC2)CC3)cc1C` [Compound 2.22, 4-((4-(1-(tert-Butyl)-1H-pyrazol-4-yl)pyridin-2-yl)((4-(4-methoxy-3-methylphenyl)bicyclo[2.2.2]octan-1-yl)methyl)carbamoyl) (trans-cyclohexyl) 3-hydroxy-3-methylazetidine-1-carboxylate], for which the half-maximal effective concentration (EC50) was no more than 0.01 µM.

`CCC(C)(C)n1cc(-c2ccnc(N(CC34CCC(c5ccc(OC)c(C)c5)(CC3)CC4)C(=O)[C@H]3CC[C@H](OC(=O)N4CC(C)(O)C4)CC3)c2)cn1` [Compound 4.01, 4-(((4-(4-Methoxy-3-methylphenyl)bicyclo[2.2.2]octan-1-yl)methyl)(4-(1-(tert-pentyl)-1H-pyrazol-4-yl)pyridin-2-yl)carbamoyl) cyclohexyl trans-3-hydroxy-3-methylazetidine-1-carboxylate] showed a concentration for a half-maximal effect (EC50) of no more than 0.01 µM.

`COc1ccc(C23CCC(CN(c4cc(-c5cnc(C(C)(C)C)s5)ccn4)C(=O)[C@H]4CC[C@H](OC(=O)N5CCC(O)CC5)CC4)(CC2)CC3)cc1C` [Compound 2.05, 4-((4-(2-(tert-Butyl)thiazol-5-yl)pyridin-2-yl)((4-(4-methoxy-3-methylphenyl)bicyclo[2.2.2]octan-1-yl)methyl)carbamoyl)cyclohexyl 4-hydroxypiperidine- trans-1-carboxylate] had an EC50 of no more than 0.01 µM.

On to `COc1ccc([C@H]2CC[C@H](CN(c3cc(-c4cnc(C(C)(C)C)s4)ccn3)C(=O)[C@H]3CC[C@H](OC(=O)N4CC(O)C4(C)C)CC3)CC2)cc1C` (stereo partly drawn) [Compound 1.02, trans-4-((4-(2-(tert-Butyl)thiazol-5-yl)pyridin-2-yl)(((trans)-4-(4-methoxy-3-methylphenyl)cyclohexyl)methyl)carbamoyl) cyclohexyl 3-hydroxy-2,2-dimethylazetidine-1-carboxylate], for which the EC50 was 0.01 to 1 µM.

`COc1ccc(C23CCC(CN(c4cc(-c5cnn(C(C)(C)C)c5)ccn4)C(=O)[C@H]4CC[C@H](OC(=O)NC5CCSCC5)CC4)(CC2)CC3)cc1C` [Compound 2.29, 4-((4-(1-(tert-Butyl)-1H-pyrazol-4-yl)pyridin-2-yl)((4-(4-methoxy-3-methylphenyl)bicyclo[2.2.2]octan-1-yl)methyl)carbamoyl)cyclohexyl trans-(tetrahydro-2H-thiopyran-4-yl)carbamate] yielded an EC50 of 0.01 to 1 µM.

Turning to `COc1ccc(C23CCC(CN(c4ccnc(-c5cnn(C(C)(C)C)c5)c4)C(=O)[C@H]4CC[C@H](OC(=O)N5CC(O)C5)CC4)(CC2)CC3)cc1C` [Compound 1.13, 4-((2-(1-(tert-Butyl)-1H-pyrazol-4-yl)pyridin-4-yl)((4-(4-methoxy-3-methylphenyl)bicyclo[2.2.2]octan-1-yl)methyl)carbamoyl) (trans-cyclohexyl) 3-hydroxyazetidine-1-carboxylate], the EC50 fell in the range of 0.01 to 1 µM.

The compound `COc1ccc(C23CCC(CN(c4cc(-c5cnn(C(C)(C)C(F)(F)F)c5)ccn4)C(=O)[C@H]4CC[C@H](OC(=O)N5CC(O)C5)CC4)(CC2)CC3)cc1C` [Compound 4.09, 4-(((4-(4-Methoxy-3-methylphenyl)bicyclo[2.2.2]octan-1-yl)methyl)(4-(1-(1,1,1-trifluoro-2-methylpropan-2-yl)-1H-pyrazol-4-yl)pyridin-2-yl)carbamoyl)cyclohexyl trans-3-hydroxyazetidine-1-carboxylate] had an EC50 of no more than 0.01 µM.

`COc1ccc(C23CCC(CN(c4cc(-c5cnn(C(C)(C)C)c5)ccn4)C(=O)[C@H]4CC[C@H](OC(=O)NCCCO)CC4)(CC2)CC3)cc1C` [Compound 2.31, 4-((4-(1-(tert-Butyl)-1H-pyrazol-4-yl)pyridin-2-yl)((4-(4-methoxy-3-methylphenyl)bicyclo[2.2.2]octan-1-yl)methyl)carbamoyl) (trans-cyclohexyl) (3-hydroxypropyl)carbamate] gave an EC50 of no more than 0.01 µM.

`COc1ccc([C@H]2CC[C@H](CN(c3cc(-c4cnn(C(C)(C)C)c4)ccn3)C(=O)[C@H]3CC[C@H](OC(=O)N4CC(O)C4)CC3)CC2)cc1C` [Compound 1.08, trans-4-((4-(1-(tert-Butyl)-1H-pyrazol-4-yl)pyridin-2-yl)((trans-4-(4-methoxy-3-methylphenyl)cyclohexyl)methyl)carbamoyl) cyclohexyl 3-hydroxyazetidine-1-carboxylate]: the EC50 lay within 0.01 to 1 µM.

Turning to `COc1ccc(C23CCC(CN(c4cc(-c5cnc(C(C)(C)C)s5)ccn4)C(=O)[C@H]4CC[C@H](OC(=O)NCCC(C)(C)O)CC4)(CC2)CC3)cc1C` [Compound 2.08, 4-((4-(2-(tert-Butyl)thiazol-5-yl)pyridin-2-yl)((4-(4-methoxy-3-methylphenyl)bicyclo[2.2.2]octan-1-yl)methyl)carbamoyl) (trans-cyclohexyl) (3-hydroxy-3-methylbutyl)carbamate], the EC50 is no more than 0.01 µM.

In turn, `COc1c(C)cc(C23CCC(CN(c4cc(-c5cnn(C(C)(C)C)c5)ncn4)C(=O)[C@H]4CC[C@H](OC(=O)N5CC(O)C5)CC4)(CC2)CC3)cc1C` [Compound 2.37, 4-((6-(1-(tert-Butyl)-1H-pyrazol-4-yl)pyrimidin-4-yl)((4-(4-methoxy-3,5-dimethylphenyl)bicyclo[2.2.2]octan-1-yl)methyl)carbamoyl) (trans-cyclohexyl) 3-hydroxyazetidine-1-carboxylate] had an EC50 of 0.01 to 1 µM.

`COc1ccc(C23CCC(CN(c4cc(-c5coc(C(C)(C)C)n5)ccn4)C(=O)[C@H]4CC[C@H](OC(=O)N5CC(OCCO)C5)CC4)(CC2)CC3)cc1C` [Compound 2.14, 4-((4-(2-(tert-Butyl)oxazol-4-yl)pyridin-2-yl)((4-(4-methoxy-3-methylphenyl)bicyclo[2.2.2]octan-1-yl)methyl)carbamoyl) (trans-cyclohexyl) 3-(2-hydroxyethoxy)azetidine-1-carboxylate] yielded an EC50 of no more than 0.01 µM.

Turning to `COc1ccc(C23CCC(CN(c4cncc(-c5cnn(C(C)(C)C)c5)c4)C(=O)[C@H]4CC[C@H](OC(=O)N5CC(O)C5)CC4)(CC2)CC3)cc1C` [Compound 1.14, 4-((5-(1-(tert-Butyl)-1H-pyrazol-4-yl)pyridin-3-yl)((4-(4-methoxy-3-methylphenyl)bicyclo[2.2.2]octan-1-yl)methyl)carbamoyl) (trans-cyclohexyl) 3-hydroxyazetidine-1-carboxylate], the EC50 is no more than 0.01 µM.

The compound `COc1ccc(C23CCC(CN(c4cc(-c5cnn(C(C)(C)C)c5)ccn4)C(=O)[C@H]4CC[C@H](OC(=O)N5CC(S(C)(=O)=O)C5)CC4)(CC2)CC3)cc1C` [Compound 2.23, 4-((4-(1-(tert-Butyl)-1H-pyrazol-4-yl)pyridin-2-yl)((4-(4-methoxy-3-methylphenyl)bicyclo[2.2.2]octan-1-yl)methyl)carbamoyl) (trans-cyclohexyl) 3-(methylsulfonyl)azetidine-1-carboxylate] returned an EC50 of no more than 0.01 µM.
